Experimental data reported in PMC7412250, “Novel Chrysin-De-Allyl PAC-1 Hybrid Analogues as Anticancer Compounds: Design, Synthesis, and Biological Evaluation” (Molecules, 2020).

Experiments:
HCT116 = assay: MTT cytotoxicity assay, HCT116; assay type: cell-based; conditions: Homo sapiens, HCT-116, mean ± SEM of three independent experiments in triplicate, read-out: IC50 Colon Cancer HCT116
Description: A panel of cancer cell lines, including breast (MDA-MB-231, BT20), brain (U251), and colon (HCT116), as well as a normal cell line (human mammary epithelial cells: HMECs), were grown as adherent monolayers in flasks with Dulbecco’s Modified Eagle Medium (DMEM), supplemented with 10% fetal bovine serum (FBS) and 1% penicillin and streptomycin in a humidified incubator with 5% CO2 at 37 °C.
The (3-(4,5-dimethylthiazol-2-yl)-2,5-diphenyltetrazolium bromide) (MTT) assay was used to determine the cytotoxicity of the 15 chrysin derivatives in the above-mentioned cell lines. Briefly, cells were harvested with 0.05% trypsin, 2.21 mM ethylenediaminetetraacetic acid (EDTA), 1× from Corning (Corning, NY, USA), and suspended at a final density of 5 × 10^3 cells/well. Cells were seeded (180 μL/well) into 96-well plates. Initially, four different concentrations of each compound were added to find the compounds with the greatest antiproliferative efficacy in the MDA-MB-231 cell line (0, 1, 10, and 100 μM). Subsequently, […] different concentrations […] of each compound were added to the remaining cell lines mentioned above. After 68 h of incubation, 20 μL of the MTT solution (4 mg/mL) were added to each well, and the plates were incubated for 4 h. This allowed viable cells to biotransform the yellow-colored MTT into dark-blue formazan crystals. Subsequently, the medium was discarded, and 150 μL of DMSO were added to each well to dissolve the formazan crystals. The absorbance was determined at 590 nm using a DTX 880 multimode detector (Beckman Coulter life sciences, IN, USA). The IC50 ± SD concentrations were calculated from three experiments performed in triplicate/duplicate. The IC50 values were calculated from the cell survival percentages obtained for each compound tested at different concentrations. Similarly, the cytotoxicity of the test compounds was compared to the normal cell line (HMEC).

MDA-MB-231 cells = assay: Morphological observation of cells; assay type: cell-based, human; conditions: 20 µM
Description: Figure 3 Effects of 4g and 4i on cellular morphology, mitochondrial membrane potential, and cell cycle (A) Morphological observations of MDA-MB-231 cells incubated with 0, 5, and 20 µM concentrations of 4g and 4i at different time intervals of 0, 24, 48, and 72 h, respectively; (B) The MDA-MB-231 cells in complete medium were incubated with 4g and 4i at 0, 5, or 10 µM for 24 h. Cells were then incubated with the reagents of the MitoTracker Red and Alexa Fluor 488 annexin V kits for flow cytometry. Representative results of MDA-MB-231 cells from two independent experiments, each performed in triplicate, are shown; (C) Histograms quantitatively summarize the results following incubation with 4g and 4i, respectively; (D) The induction of cell cycle arrest in MDA-MB-231 cells by 4g and 4i is shown. The MDA-MB-231 cells were incubated with different concentrations (0, 5, and 10 µM) of 4g and 4i for 24 h and were subjected to cell cycle analysis by flow cytometry of PI (X axis)/cell counts (Y axis); (E) A histogram quantitatively summarizing the change in % of cells in each phase of the cell cycle due to incubation with 4g and 4i. The data represents means ± SEM of three independent experiments performed in triplicate with **** p < 0.0001 vs. control group. […]

Row | Compound | IC50 (HCT116) [µM] | cellular morphology (MDA-MB-231 cells)
1 | O=C(COc1cc(O)c2c(=O)cc(-c3ccccc3)oc2c1)N/N=C/c1ccc(O)cc1O [Compound 4g, (E,Z)-N’-(2,4-Dihydroxybenzylidene)-2-((5-hydroxy-4-oxo-2-phenyl-4H-chromen-7-yl)oxy)acetohydrazide] | 2.68 ± 0.15 | decreased the number of adherent MDA-MB-231 cells and induced cellular shrinkage
2 | O=C(COc1cc(O)c2c(=O)cc(-c3ccccc3)oc2c1)N/N=C/c1ccc(O)c(O)c1O [Compound 4i, (E,Z)-2-((5-Hydroxy-4-oxo-2-phenyl-4H-chromen-7-yl)oxy)-N’-(2,3,4-trihydroxybenzylidene)acetohydrazide] | 20.09 ± 0.13 | decreased the number of adherent MDA-MB-231 cells and induced cellular shrinkage
